Results published in ChEMBL document CHEMBL1146892, “Pyrrolidine bis-cyclic guanidines with antimicrobial activity against drug-resistant Gram-positive pathogens identified from a mixture-based combinatorial library” (2006).
Converted amounts (≈) assume the structure as drawn.

Columns and labels:
Type in all cases: functional
Escherichia coli = test: Antibacterial activity against Escherichia coli ATCC 25922
Enterococcus faecalis = test: Antibacterial activity against vancomycin-resistant Enterococcus faecalis ATCC 51299
Staphylococcus aureus = test: Antibacterial activity against methicillin-resistant Staphylococcus aureus ATCC 33591

Row | Structure (SMILES) | MBC (Escherichia coli) | MIC (Escherichia coli) | MBC (Enterococcus faecalis) | MIC (Enterococcus faecalis) | MBC (Staphylococcus aureus) | MIC (Staphylococcus aureus)
1 | CC(C)Cc1ccc(C(C)CN2C(=N)N([C@H](Cc3ccc4ccccc4c3)CN3CCCC3CN3C(N)=NC[C@@H]3Cc3ccccc3)C[C@@H]2CC2CCCCC2)cc1 (some centres not stated) | > 10 µg/mL | > 10 µg/mL | > 10 µg/mL | < 2.5 µg/mL | < 2.5 µg/mL | < 2.5 µg/mL
2 | CC(C)Cc1ccc(C(C)CN2C(=N)N([C@H](CC3CCCCC3)CN3CCCC3CN3C(N)=NC[C@@H]3Cc3ccccc3)C[C@H]2CC2CCCCC2)cc1 (some centres not stated) | 5 µg/mL (≈ 6.79 µM) | 5 µg/mL (≈ 6.79 µM) | > 10 µg/mL | 2.5 µg/mL (≈ 3.4 µM) | < 2.5 µg/mL | < 2.5 µg/mL
3 | CCCC[C@@H]1CN([C@H](CC2CCCCC2)CN2CCCC2CN2C(N)=NC[C@@H]2C)C(=N)N1CC(C)c1ccc(CC(C)C)cc1 (some centres not stated) | > 10 µg/mL | > 10 µg/mL | > 10 µg/mL | < 2.5 µg/mL | 2.5 µg/mL (≈ 4.03 µM) | < 2.5 µg/mL
4 | CC(C)Cc1ccc(C(C)CN2C(=N)N([C@@H](CC3CCCCC3)CN3CCCC3CN3C(N)=NC[C@@H]3Cc3ccccc3)C[C@@H]2CC2CCCCC2)cc1 (some centres not stated) | > 10 µg/mL | > 10 µg/mL | < 2.5 µg/mL | < 2.5 µg/mL | < 2.5 µg/mL | < 2.5 µg/mL
5 | C[C@H]1CN=C(N)N1CC1CCCN1C[C@@H](CC1CCCCC1)N1C[C@H](CC2CCCCC2)N(CCc2cc(C(F)(F)F)cc(C(F)(F)F)c2)C1=N (some centres not stated) | 5 µg/mL (≈ 6.89 µM) | 5 µg/mL (≈ 6.89 µM) | 2.5 µg/mL (≈ 3.44 µM) | < 2.5 µg/mL | 2.5 µg/mL (≈ 3.44 µM) | < 2.5 µg/mL
6 | CC(C)Cc1ccc(C(C)CN2C(=N)N([C@H](CC3CCCCC3)CN3CCCC3CN3C(N)=NC[C@@H]3C)C[C@H]2CC2CCCCC2)cc1 (some centres not stated) | 5 µg/mL (≈ 7.58 µM) | 5 µg/mL (≈ 7.58 µM) | < 2.5 µg/mL | < 2.5 µg/mL | 2.5 µg/mL (≈ 3.79 µM) | < 2.5 µg/mL
7 | CC(C)Cc1ccc(C(C)CN2C(=N)N([C@H](Cc3ccc4ccccc4c3)CN3CCCC3CN3C(N)=NC[C@@H]3C)C[C@H]2CC2CCCCC2)cc1 (some centres not stated) | > 10 µg/mL | > 10 µg/mL | < 2.5 µg/mL | < 2.5 µg/mL | < 2.5 µg/mL | < 2.5 µg/mL
8 | C[C@H]1CN=C(N)N1CC1CCCN1C[C@@H](Cc1ccc2ccccc2c1)N1C[C@@H](CC2CCCCC2)N(CCc2cc(C(F)(F)F)cc(C(F)(F)F)c2)C1=N (some centres not stated) | > 10 µg/mL | > 10 µg/mL | < 2.5 µg/mL | < 2.5 µg/mL | < 2.5 µg/mL | < 2.5 µg/mL
9 | CC(C)Cc1ccc(C(C)CN2C(=N)N([C@H](CC3CCCCC3)CN3CCCC3CN3C(N)=NC[C@@H]3C)C[C@@H]2CC2CCCCC2)cc1 (some centres not stated) | 5 µg/mL (≈ 7.58 µM) | 5 µg/mL (≈ 7.58 µM) | > 10 µg/mL | < 2.5 µg/mL | < 2.5 µg/mL | < 2.5 µg/mL
10 | CC(C)Cc1ccc(C(C)CN2C(=N)N([C@@H](CC3CCCCC3)CN3CCCC3CN3C(N)=NC[C@@H]3C)C[C@H]2CC2CCCCC2)cc1 (some centres not stated) | > 10 µg/mL | > 10 µg/mL | > 10 µg/mL | < 2.5 µg/mL | < 2.5 µg/mL | < 2.5 µg/mL
11 | N=C1N(CCc2cc(C(F)(F)F)cc(C(F)(F)F)c2)[C@H](CC2CCCCC2)CN1[C@H](Cc1ccc2ccccc2c1)CN1CCCC1CN1C(N)=NC[C@@H]1Cc1ccccc1 (some centres not stated) | > 10 µg/mL | > 10 µg/mL | > 10 µg/mL | < 2.5 µg/mL | 2.5 µg/mL (≈ 2.96 µM) | < 2.5 µg/mL
12 | CC(C)Cc1ccc(C(C)CN2C(=N)N([C@@H](CC3CCCCC3)CN3CCCC3CN3C(N)=NC[C@@H]3Cc3ccccc3)C[C@H]2CC2CCCCC2)cc1 (some centres not stated) | > 10 µg/mL | > 10 µg/mL | < 2.5 µg/mL | < 2.5 µg/mL | < 2.5 µg/mL | < 2.5 µg/mL
13 | N=C1N(CCc2cc(C(F)(F)F)cc(C(F)(F)F)c2)[C@@H](CC2CCCCC2)CN1[C@@H](CC1CCCCC1)CN1CCCC1CN1C(N)=NC[C@@H]1Cc1ccccc1 (some centres not stated) | > 10 µg/mL | > 10 µg/mL | > 10 µg/mL | < 2.5 µg/mL | < 2.5 µg/mL | < 2.5 µg/mL
14 | CC(C)Cc1ccc(C(C)CN2C(=N)N([C@H](Cc3ccc4ccccc4c3)CN3CCCC3CN3C(N)=NC[C@@H]3Cc3ccccc3)C[C@H]2CC2CCCCC2)cc1 (some centres not stated) | > 10 µg/mL | > 10 µg/mL | > 10 µg/mL | < 2.5 µg/mL | 2.5 µg/mL (≈ 3.2 µM) | < 2.5 µg/mL
15 | N=C1N(CCc2cc(C(F)(F)F)cc(C(F)(F)F)c2)[C@H](CC2CCCCC2)CN1[C@@H](CC1CCCCC1)CN1CCCC1CN1C(N)=NC[C@@H]1Cc1ccccc1 (some centres not stated) | 5 µg/mL (≈ 6.23 µM) | 5 µg/mL (≈ 6.23 µM) | < 2.5 µg/mL | < 2.5 µg/mL | < 2.5 µg/mL | < 2.5 µg/mL
16 | C[C@H]1CN=C(N)N1CC1CCCN1C[C@H](CC1CCCCC1)N1C[C@@H](CC2CCCCC2)N(CCc2cc(C(F)(F)F)cc(C(F)(F)F)c2)C1=N (some centres not stated) | > 10 µg/mL | > 10 µg/mL | > 10 µg/mL | < 2.5 µg/mL | < 2.5 µg/mL | < 2.5 µg/mL
17 | CCCC[C@@H]1CN([C@@H](CC2CCCCC2)CN2CCCC2CN2C(N)=NC[C@@H]2Cc2ccccc2)C(=N)N1CCc1cc(C(F)(F)F)cc(C(F)(F)F)c1 (some centres not stated) | > 10 µg/mL | > 10 µg/mL | < 2.5 µg/mL | < 2.5 µg/mL | < 2.5 µg/mL | < 2.5 µg/mL
